Test [1] deals with Corynebacterium xerosis ATCC 373. Nature of the test: Agar diffusion test (caso-agar, stamped-out holes). The class given is cell-based. The settings on record: for Inhibitory aureola diameter Cory. xerosis ATTC 373: 10000 ppm, 100 μl per hole in double-distilled water, 37° C. for 2 days, two values per cell. The procedure:
(§1) Test method: An agar diffusion test is carried out with the following modifications: Medium: casein-soya flour peptone agar (caso-agar) Test organisms: Corynebacterium xerosis ATCC 373 Corynebacterium xerosis ATCC 7711 Corynebacterium minutissimum ATCC 23358 Procedure: 500 ml of caso-agar are innoculated with 3.5 ml of an overnight culture of the bacteria, diluted 1:100, and caso plates (18 ml) are covered with a layer of about 5 ml of the bacteria-containing agar. […] Each stamped-out hole is filled with in each case 100 μl of a test substance dilution and the plates are incubated at 37° C. for 2 days. Double-distilled water is employed as the solvent for all the substances. In the case of […], the pH is adjusted to 3.3 by addition of 1 N NaOH. Chemically prepared S,S-EDDS is adjusted to the pH of 5.6 by addition of 1 N NaOH. Controls: Double-distilled water

In test [2] the test system is Corynebacterium xerosis ATCC 7711. Nature of the test: Agar diffusion test (caso-agar, stamped-out holes). The note with it: 10000 ppm, 100 μl per hole in double-distilled water, 37° C. for 2 days; two values per cell. The format is cell-based. The procedure:
as §1

For `O=C(O)CN(CCN(CC(=O)O)CC(=O)O)CC(=O)O` [EDTA, ethylenediaminetetraacetic acid, reference compound], the “Inhibitory aureola diameter Cory. xerosis ATTC 373” value in test [1] is 5/5. In addition, the “bacteriostatic action against Corynebacterium xerosis” value in test [1] (summary in words of Table 1 (both strains)) is reported as “pronounced bacteriostatic action”. In addition, the “Inhibitory aureola diameter Cory. xerosis ATTC 7711” value in test [2] is 2/2.

For `O=C(O)C[C@H](NCCN[C@@H](CC(=O)O)C(=O)O)C(=O)O` [R,R-EDDS, ethylenediaminedisuccinic acid], the “Inhibitory aureola diameter Cory. xerosis ATTC 373” value in test [1] is on record as 15/15.

For `O=C(O)C[C@H](NCCN[C@@H](CC(=O)O)C(=O)O)C(=O)O` [S,S-EDDS (prepared by fermentation), (S,S)-N,N′-ethylenediaminedisuccinic acid], in test [1], the “Inhibitory aureola diameter Cory. xerosis ATTC 373” value is given as 10/10^1. In test [2], the “Inhibitory aureola diameter Cory. xerosis ATTC 7711” value is reported as 15/15^1.

The values are drawn from patent publication US6391325B1, “Use of nitrogen-containing complexing agents for deodorization and antimicrobial treatment of the skin and textile fibre materials” (Ciba Specialty Chemicals Corporation, priority 1996, dated 2002).
